From patent US6541500B1, “Fungicide mixture” (BASF Aktiengesellschaft, priority 1998, dated 2003)

Tested on: mildew of wheat (Erysiphe graminis forma specialis tritici)
Experiment: Action against mildew of wheat (wheat seedlings cv. Kanzler, protective spray)
Format: in vivo
Details: single active ingredient, wheat leaves, 7 days after inoculation
Protocol: The active compounds, separately or together, are formulated as a 10% strength emulsion in a mixture of 70% by weight of cyclohexanone, 20% by weight of Nekanil® LN (Lutensol® AP6, wetting agent having emulsifying and dispersing action based on ethoxylated alkylphenols) and 10% by weight of Emulphor® EL (Emulan® EL, emulsifier based on ethoxylated fatty alcohols) and diluted with water to the desired concentration.
Evaluation is carried out by determining the infected leaf areas in percent. These percentages are converted into efficacies. The expected efficacies of the mixtures of the active compounds are determined using Colby's formula [R. S. Colby, Weeds 15, 20-22 (1967)] and compared with the observed efficacies.
At an efficacy of 0, the infection level of the treated plants corresponds to that of the untreated control plants; at an efficacy of 100, the treated plants are not infected.
Leaves of wheat seedlings of the cultivar “Kanzler”, grown in pots, were sprayed to run-off point with an aqueous formulation of active ingredient which had been prepared using a stock solution comprising 10% of active ingredient, 63% of cyclohexanone and 27% of emulsifier, and 24 h after the spraycoating had dried on the leaves were dusted with spores of mildew of wheat (Erysiphe graminis forma specialis tritici). The test plants were subsequently placed in climatized chambers at 20-24° C. and 60-90% relative atmospheric humidity for 7 days. The extent of the development of the disease on the leaves was then evaluated visually.
The visually determined values for the percentage of diseased leaf area were converted into efficacies in % of the untreated control. An efficacy of 0 means the same disease level as in the untreated control, an efficacy of 100 means a disease level of 0%. The expected efficacies for the active ingredient combinations were determined using Colby's formula (Colby, S. R. “Calculating synergistic and antagonistic responses of herbicide combinations”, Weeds, 15, pp. 20-22, 1967) and compared with the observed efficacies. […]

Fc1ccc(Oc2ccnc3cc(Cl)cc(Cl)c23)cc1 [I.78, quinoxyfen]
Efficacy in % of the untreated control (conc. 0.06 ppm): 0%
Efficacy in % of the untreated control (conc. 0.25 ppm): 0%
Efficacy in % of the untreated control (conc. 1 ppm): 33%
